Literature values in patent publication US6103262A, “Modified-release metronidazole compositions and methods for making and using same” (priority 1994, dated 2000).

What was measured:
[1] = test system: trichomoniasis or bacterial vaginosis
[2] = in vivo
[3] = test system: Trichomonas vaginalis, Entamoeba histolytica, Helicobacter species, anaerobic bacteria

aqueous solubility (in words): aqueous soluble
absorption by the bloodstream [2]: rapidly absorbed
clearance from the bloodstream [2]: rapidly cleared
Compound: Cc1ncc([N+](=O)[O-])n1CCO [metronidazole, 1-(2-hydroxyethyl)-2-methyl-5-nitroimidazole]
side effects ([1]; in vivo): significant and undesirable side effects such as nausea
occurrence and severity of side effects, lower dosages ([1]; in vivo, po): significantly reduce the occurrence and severity of side effects
clinical efficacy ([1]; single large dose (~2 grams) as a bolus): clinically effective
killing of microorganisms [3]: effective for killing
